# How the values were obtained:
# [1] = target: T1, first bromodomain (BrD1) of human BRD4 (Homo sapiens, UniProt O60885); test: Fluorescence anisotropy binding assay (competition with FITC-labeled MS417 probe); conditions: FITC-MS417 probe 80 nM, PBS pH 7.4, 1 hour, 25° C., read-out: BRD4_1 IC50
# T1 construct: the first bromodomain (BrD1) of human BRD4; poly-His (cleaved yes); made in house
# Protocol: Fluorescence Anisotropy Binding Assay
# Expression and purification of the first bromodomain (BrD1) of human BRD4 in poly-His tag form was performed using a procedure described in the literature [See Zeng et al. Structure 16, 643-652 (2008) and Zhang et al., J Biol Chem 287, 28840-28851 (2012).] The protein was purified by using affinity chromatography on a nickel-IDA column (Invitrogen), followed by the removal of poly-His tag by thrombin cleavage.
# Binding affinity of the newly synthesized compounds to the BRD4 BrD1 was assessed in a fluorescence anisotropy assay using a fluorescein isothiocyanate (FITC)-labeled MS417 as an assay probe (Zhang et al. 2008 op.cit.). Competition binding was performed with a BrD protein (0.25 to 1 μM) and the fluorescent probe (80 nM), and increasing concentration of unlabeled competing ligand in a PBS buffer (pH 7.4) in total volume of 80 μL. Measurements were obtained after 1 hour incubation of the fluorescent ligand and the protein at 25° C. with Safire 2 microplate reader (Tecan). In the assay, fluorescent ligand concentration was ≦2Kd, and protein concentration was set at which 50-80% of fluorescent ligand is bound. Dissociation constant of a competing ligand was calculated with the correction to Cheng-Prussoff equation introduced by Nicolovska-Coleska and colleagues [Nikolovska-Coleska, Z. et al., Anal Biochem 332, 261-273 (2004). Assuming one-site competitive binding model, the equation used to calculate Ki's from IC50 values recovered from fitting data using Prism:
# [formula] where [I50] is the concentration of free inhibitor at 50% inhibition, [L50], the concentration of free labeled ligand at 50% inhibition, and [P0], concentration of free protein at 0% inhibition. Note that Kd for each protein-probe pair is the limit of resolvable Ki in a competition assay.
# [2] = target: T2, BRD4_2 (Homo sapiens, UniProt O60885); test: Fluorescence anisotropy binding assay (competition with FITC-labeled MS417 probe), BRD4_2; conditions: FITC-MS417 probe 80 nM, PBS pH 7.4, 1 hour, 25° C.
# T2 construct: contains two tandem bromodomains (BrD1 and BrD2)
Structure (SMILES),IC50 [1] [µM],IC50 [2] [µM]
"CC1=C(N[C@H]2CC[C@H](C(=O)Nc3ccc(C)cc3)CC2)CCC1=O [Example 04-32, (1R,4R)-4-((2-methyl-3-oxocyclopent-1-en-1-yl)amino)-N-(p-tolyl)-cyclohexanecarboxamide]",> 10,> 10
"CC1=C(N[C@H]2CC[C@@H](C(=O)Nc3ccccc3)CC2)CCC1=O [Example 04-36, (1S,4S)-4-((2-methyl-3-oxocyclopent-1-en-1-yl)amino)-N-phenylcyclohexane-carboxamide]",> 10,> 10
CC1=C(N[C@H]2CC[C@@H](C(=O)Nc3ccc(C)cc3)CC2)CCC1=O [Example 04-40],> 10,> 10
"CC1=C(Nc2ccc(C(=O)NC3CCCCC3)c(Cl)c2)CCC1=O [Example 04-43, 2-chloro-N-cyclohexyl-4-((2-methyl-3-oxocyclopent-1-en-1-yl)amino)benzamide]",> 10,> 10
"CC1=C(Nc2ccc(C(=O)Nc3cccc4ccccc34)c(Cl)c2)CCC1=O [Example 04-44, 2-chloro-4-((2-methyl-3-oxocyclopent-1-en-1-yl)amino)-N-(naphthalen-1-yl)-benzamide]",1 to 10,> 10
"CC1=C(Nc2ccc(C(=O)Nc3ccccc3)c(Cl)c2)CCC1=O [Example 04-45, 2-chloro-4-((2-methyl-3-oxocyclopent-1-en-1-yl)amino)-N-phenylbenzamide]",> 10,> 10
"COc1ccccc1NC(=O)c1ccc(NC2=C(C)C(=O)CC2)cc1Cl [Example 04-46, 2-chloro-N-(2-methoxyphenyl)-4-((2-methyl-3-oxocyclopent-1-en-1-yl)amino)benzamide]",1 to 10,> 10
"COc1cccc(NC(=O)c2ccc(NC3=C(C)C(=O)CC3)cc2Cl)c1 [Example 04-47, 2-chloro-N-(3-methoxyphenyl)-4-((2-methyl-3-oxocyclopent-1-en-1-yl)amino)benzamide]",> 10,> 10
"COc1ccc(NC(=O)c2ccc(NC3=C(C)C(=O)CC3)cc2Cl)cc1 [Example 04-48, 2-chloro-N-(4-methoxyphenyl)-4-((2-methyl-3-oxocyclopent-1-en-1-yl)amino)-benzamide]",1 to 10,1 to 10
"CC1=C(Nc2ccc(C(=O)Nc3ccccc3C)c(Cl)c2)CCC1=O [Example 04-49, 2-chloro-4-((2-methyl-3-oxocyclopent-1-en-1-yl)amino)-N-(o-tolyl)benzamide]",1 to 10,> 10
"CC1=C(Nc2ccc(C(=O)Nc3cccc(C)c3)c(Cl)c2)CCC1=O [Example 04-50, 2-chloro-4-((2-methyl-3-oxocyclopent-1-en-1-yl)amino)-N-(m-tolyl)benzamide]",> 10,> 10
"CC1=C(Nc2ccc(C(=O)Nc3ccc(C)cc3)c(Cl)c2)CCC1=O [Example 04-51, 2-chloro-4-((2-methyl-3-oxocyclopent-1-en-1-yl)amino)-N-(p-tolyl)benzamide]",> 10,> 10
"CC1=C(Nc2ccc(C(=O)Nc3cccc(F)c3)c(Cl)c2)CCC1=O [Example 04-52, 2-chloro-N-(3-fluorophenyl)-4-((2-methyl-3-oxocyclopent-1-en-1-yl)amino)-benzamide]",> 10,> 10
"CNC(=O)c1ccc(NC2=C(C)C(=O)CC2)c(OC)c1 [Example 04-53, 3-methoxy-N-methyl-4-((2-methyl-3-oxocyclopent-1-en-1-yl)amino)benzamide]",1 to 10,1 to 10
"COc1cc(C(=O)NC2CCCCC2)ccc1NC1=C(C)C(=O)CC1 [Example 04-54, N-cyclohexyl-3-methoxy-4-((2-methyl-3-oxocyclopent-1-en-1-yl)amino)-benzamide]",1 to 10,1 to 10
"COc1cc(C(=O)Nc2cccc3ccccc23)ccc1NC1=C(C)C(=O)CC1 [Example 04-55, 3-methoxy-4-((2-methyl-3-oxocyclopent-1-en-1-yl)amino)-N-(naphthalen-1-yl)-benzamide]",1 to 10,1 to 10
"COc1cc(C(=O)Nc2ccccc2)ccc1NC1=C(C)C(=O)CC1 [Example 04-56, 3-methoxy-4-((2-methyl-3-oxocyclopent-1-en-1-yl)amino)-N-phenylbenzamide]",1 to 10,1 to 10
"COc1ccccc1NC(=O)c1ccc(NC2=C(C)C(=O)CC2)c(OC)c1 [Example 04-57, 3-methoxy-N-(2-methoxyphenyl)-4-((2-methyl-3-oxocyclopent-1-en-1-yl)amino)-benzamide]",1 to 10,1 to 10
"COc1cccc(NC(=O)c2ccc(NC3=C(C)C(=O)CC3)c(OC)c2)c1 [Example 04-58, 3-methoxy-N-(3-methoxyphenyl)-4-((2-methyl-3-oxocyclopent-1-en-1-yl)amino)-benzamide]",1 to 10,1 to 10
"COc1ccc(NC(=O)c2ccc(NC3=C(C)C(=O)CC3)c(OC)c2)cc1 [Example 04-59, 3-methoxy-N-(4-methoxyphenyl)-4-((2-methyl-3-oxocyclopent-1-en-1-yl)amino)-benzamide]",1 to 10,1 to 10
"COc1cc(C(=O)Nc2ccccc2C)ccc1NC1=C(C)C(=O)CC1 [Example 04-60, 3-methoxy-4-((2-methyl-3-oxocyclopent-1-en-1-yl)amino)-N-(o-tolyl)benzamide]",1 to 10,1 to 10
"COc1cc(C(=O)Nc2cccc(C)c2)ccc1NC1=C(C)C(=O)CC1 [Example 04-61, 3-methoxy-4-((2-methyl-3-oxocyclopent-1-en-1-yl)amino)-N-(m-tolyl)benzamide]",1 to 10,1 to 10
"COc1cc(C(=O)Nc2ccc(C)cc2)ccc1NC1=C(C)C(=O)CC1 [Example 04-62, 3-methoxy-4-((2-methyl-3-oxocyclopent-1-en-1-yl)amino)-N-(p-tolyl)benzamide]",1 to 10,1 to 10
CNC(=O)c1ccc(NC2=C(C)C(=O)CC2)cc1OC [Example 04-65],1 to 10,1 to 10
"COc1cc(NC2=C(C)C(=O)CC2)ccc1C(=O)NC1CCCCC1 [Example 04-66, N-cyclohexyl-2-methoxy-4-((2-methyl-3-oxocyclopent-1-en-1-yl)amino)-benzamide]",1 to 10,1 to 10
"COc1cc(NC2=C(C)C(=O)CC2)ccc1C(=O)Nc1cccc2ccccc12 [Example 04-67, 2-methoxy-4-((2-methyl-3-oxocyclopent-1-en-1-yl)amino)-N-(naphthalen-1-yl)benzamide]",< 1,> 10
"COc1cc(NC2=C(C)C(=O)CC2)ccc1C(=O)Nc1ccccc1 [Example 04-68, 2-methoxy-4-((2-methyl-3-oxocyclopent-1-en-1-yl)amino)-N-phenylbenzamide]",1 to 10,1 to 10
"COc1ccccc1NC(=O)c1ccc(NC2=C(C)C(=O)CC2)cc1OC [Example 04-69, 2-methoxy-N-(2-methoxyphenyl)-4-((2-methyl-3-oxocyclopent-1-en-1-yl)amino)-benzamide]",< 1,> 10
"COc1cccc(NC(=O)c2ccc(NC3=C(C)C(=O)CC3)cc2OC)c1 [Example 04-70, 2-methoxy-N-(3-methoxyphenyl)-4-((2-methyl-3-oxocyclopent-1-en-1-yl)amino)-benzamide]",1 to 10,1 to 10

# Source: patent publication US9884806B2, “Cyclic vinylogous amides as bromodomain inhibitors” (ICAHN SCHOOL OF MEDICINE AT MOUNT SINAI, priority 2013, dated 2018)
